Calls of active or inactive are those of the source. No cut-off for these calls is given here.

Data set [1] has as its system RAW264.7. In words: Anti-inflammatory activity in mouse RAW264.7 cells assessed as inhibition of LPS-stimulated NO production by Griess assay. Format: functional, cell-based.
Data set [2] deals with RAW264.7. The data set can be described thus: Anti-inflammatory activity in mouse RAW264.7 cells assessed as inhibition of LPS-stimulated NO production preincubated for 2 hrs followed by LPS stimulation measured after 18 hrs by Griess assay. Format: functional, cell-based.
In data set [3] the test system is RAW264.7. The data set can be described thus: Cytotoxicity against LPS-stimulated mouse RAW264.7 cells assessed as reduction in cell viability at 3.3 to 90 uM after 24 hrs by MTT assay. Format: cell-based. As to conditions: raw264.7, 24 h.
Data set [4] concerns RAW264.7. The data set can be described thus: Inhibition of NF-kB signaling in mouse RAW264.7 cells assessed as reduction in LPS-stimulated IL-6 mRNA level preincubated for 2 hrs followed by LPS stimulation measured after 4 hrs by qRT-PCR assay. Format: cell-based.
The test system of data set [5] is RAW264.7. The data set can be described thus: Inhibition of NF-kB signaling in mouse RAW264.7 cells assessed as reduction in LPS-stimulated IL-1beta mRNA level preincubated for 2 hrs followed by LPS stimulation measured after 4 hrs by qRT-PCR assay. Format: cell-based. In general terms: Real-time PCR tracks product formation cycle by cycle.
The subject of data set [6] is RAW264.7. The data set can be described thus: Inhibition of NF-kB signaling in mouse RAW264.7 cells assessed as reduction in LPS-stimulated TNFalpha mRNA level preincubated for 2 hrs followed by LPS stimulation measured after 4 hrs by qRT-PCR assay. Format: cell-based.
Data set [7] concerns RAW264.7. In words: Inhibition of NF-kB signaling in mouse RAW264.7 cells assessed as reduction in LPS-stimulated iNOS protein level at 3.3 to 30 uM preincubated for 2 hrs followed by LPS stimulation measured after 4 hrs by Western blot assay. Format: cell-based. For orientation: A western blot detects proteins with antibodies after separation by electrophoresis.
Data set [8] concerns RAW264.7. In words: Inhibition of NF-kB signaling in mouse RAW264.7 cells assessed as reduction in LPS-stimulated iNOS mRNA level preincubated for 2 hrs followed by LPS stimulation measured after 24 hrs by qRT-PCR method. Format: cell-based.
Data set [9] deals with Transcription factor p65 (Mus musculus) (UniProt Q04207). The data set can be described thus: Inhibition of NF-kB p65 phosphorylation in mouse RAW264.7 cells at 3.3 to 30 uM preincubated for 2 hrs followed by LPS stimulation measured after 30 mins by Western blot method. Format: cell-based.
Sequence of Transcription factor p65 (Mus musculus) (Q04207 whole entry): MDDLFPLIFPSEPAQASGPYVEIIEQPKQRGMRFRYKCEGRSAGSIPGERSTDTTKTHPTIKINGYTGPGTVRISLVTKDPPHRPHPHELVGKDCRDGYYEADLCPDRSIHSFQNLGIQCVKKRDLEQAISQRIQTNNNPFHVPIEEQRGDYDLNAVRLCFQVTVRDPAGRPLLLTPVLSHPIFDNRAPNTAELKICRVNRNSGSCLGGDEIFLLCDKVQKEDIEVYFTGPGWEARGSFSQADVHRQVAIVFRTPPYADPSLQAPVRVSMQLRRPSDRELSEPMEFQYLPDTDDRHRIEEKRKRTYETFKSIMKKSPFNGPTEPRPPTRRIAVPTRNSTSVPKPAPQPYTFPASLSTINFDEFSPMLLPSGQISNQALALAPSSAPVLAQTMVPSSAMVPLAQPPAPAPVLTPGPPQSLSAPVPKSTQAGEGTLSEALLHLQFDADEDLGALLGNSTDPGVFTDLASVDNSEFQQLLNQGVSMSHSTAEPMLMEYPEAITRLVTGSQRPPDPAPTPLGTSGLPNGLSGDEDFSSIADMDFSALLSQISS
The target is the same in data set [10]. In words: Inhibition of NF-kB p65 signaling pathway in mouse RAW264.7 cells assessed as reduction in LPS-stimulated IkBalpha phosphorylation at 3.3 to 30 uM preincubated for 2 hrs followed by LPS stimulation measured after 30 mins by Western blot method. Format: cell-based.
The target is the same in data set [11]. The data set can be described thus: Inhibition of LPS-stimulated NF-kB p65 signaling pathway in mouse RAW264.7 cells assessed as IkBalpha accumulation at 3.3 to 30 uM preincubated for 2 hrs followed by LPS stimulation measured after 30 mins by Western blot method. Format: cell-based.
Data set [12] shares this target. In words: Inhibition of LPS-stimulated NF-kB p65 signaling pathway in mouse RAW264.7 cells assessed as reduction in p65 nuclear translocation at 3.3 to 30 uM preincubated for 2 hrs followed by LPS stimulation measured after 30 mins by Western blot method. Format: cell-based.

For the compound `CCCc1c(C(C)=O)c(O)cc2c1C(=O)C[C@H](O)C2`, the IC50 in the data set on RAW264.7 [1] stood at 51.2 µM.
On to `CC(=O)CC1(O)CC(=O)c2c(C)cc(O)cc2O1` (configuration not stated), for which the inhibition entry in the data set on RAW264.7 [2], with RAW264.7 [4], in the data set on RAW264.7 [5], in the data set with RAW264.7 [6] and with RAW264.7 [8] was “Dose-dependent effect” in each case. Besides, the Activity entry with RAW264.7 [3] is on record as “Non-Toxic”. For the same compound, the inhibition entry (in the data set on RAW264.7 [7]; in data set [9]; in data set [10]; in [11]; in [12]) was “Active” each time.

As a reminder, the IC50 is the midpoint of a concentration-inhibition curve.

(Values after ChEMBL document CHEMBL4184272, “Violacin A, a new chromanone produced by Streptomyces violaceoruber and its anti-inflammatory activity” (Bioorg Med Chem Lett, 2018).)
